Test [1] concerns the target Glutamate receptor ionotropic, kainate (Rattus norvegicus) (UniProt P22756+Q01812+P42260+P42264+Q63273). The experiment in a line: Compound was tested for inhibition of binding of [3H]kainate to Ionotropic glutamate receptor kainate in rat brain membranes up to 100 uM; IA means inactive. Type of test: cell membranes.
In test [2] the target is Glutamate receptor ionotropic, AMPA (Rattus norvegicus) (UniProt P19491+P19492+P19493+P19490). The experiment in a line: Compound was tested for inhibition of binding of [3H]-Ro- 48-8587 to Ionotropic glutamate receptor AMPA in rat brain membranes up to 100 uM; IA means inactive. Type of test: cell membranes.
For test [3], the target named is Glutamate receptor ionotropic, NMDA 2C (Rattus norvegicus) (UniProt Q00961). The experiment in a line: Compound was tested for inhibition of binding of [3H]-MK 801 to NMDA receptor in rat brain membranes up to 100 uM; IA means inactive. Format: cell membranes.
Glutamate receptor ionotropic, NMDA 2C (Rattus norvegicus), sequence (Q00961 20-1237 limits assumed): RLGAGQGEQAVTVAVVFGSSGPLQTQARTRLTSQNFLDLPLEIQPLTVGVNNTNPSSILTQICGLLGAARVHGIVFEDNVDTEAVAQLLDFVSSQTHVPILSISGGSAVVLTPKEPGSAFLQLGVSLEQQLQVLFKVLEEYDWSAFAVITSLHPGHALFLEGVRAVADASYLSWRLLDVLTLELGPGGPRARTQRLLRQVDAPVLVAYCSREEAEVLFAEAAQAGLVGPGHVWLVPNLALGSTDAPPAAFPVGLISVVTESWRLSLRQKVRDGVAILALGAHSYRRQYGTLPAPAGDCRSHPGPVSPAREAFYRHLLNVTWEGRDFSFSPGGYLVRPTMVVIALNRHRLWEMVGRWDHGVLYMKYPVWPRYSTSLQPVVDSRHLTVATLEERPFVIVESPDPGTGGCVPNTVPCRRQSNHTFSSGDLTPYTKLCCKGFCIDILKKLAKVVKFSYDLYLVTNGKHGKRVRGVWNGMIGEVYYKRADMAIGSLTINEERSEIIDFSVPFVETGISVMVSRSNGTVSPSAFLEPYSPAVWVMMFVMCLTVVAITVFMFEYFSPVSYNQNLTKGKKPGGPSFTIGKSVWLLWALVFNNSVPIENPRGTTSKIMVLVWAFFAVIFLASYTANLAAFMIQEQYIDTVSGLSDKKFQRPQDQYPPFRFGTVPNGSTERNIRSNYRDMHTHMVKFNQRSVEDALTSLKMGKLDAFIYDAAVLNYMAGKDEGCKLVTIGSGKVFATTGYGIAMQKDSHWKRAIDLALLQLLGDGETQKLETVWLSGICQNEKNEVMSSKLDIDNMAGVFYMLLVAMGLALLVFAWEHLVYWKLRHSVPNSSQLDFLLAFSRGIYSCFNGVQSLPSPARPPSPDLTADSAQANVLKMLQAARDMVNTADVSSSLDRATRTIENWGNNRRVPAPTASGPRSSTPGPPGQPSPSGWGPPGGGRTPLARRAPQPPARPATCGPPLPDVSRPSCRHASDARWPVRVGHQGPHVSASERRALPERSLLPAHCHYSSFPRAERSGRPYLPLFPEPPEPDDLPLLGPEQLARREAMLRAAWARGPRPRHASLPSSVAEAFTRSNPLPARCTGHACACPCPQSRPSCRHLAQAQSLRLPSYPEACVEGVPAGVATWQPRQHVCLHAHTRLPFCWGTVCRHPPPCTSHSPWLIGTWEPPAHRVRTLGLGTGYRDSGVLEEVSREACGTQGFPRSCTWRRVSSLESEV
The target of test [4] is T1, Metabotropic glutamate receptor 2 (Rattus norvegicus, UniProt P31421). Put plainly: Inhibition of [3H]-DCG IV binding on rat mGluR2 transfected cell membranes from CHO cells.
T1 sequence (P31421 whole entry): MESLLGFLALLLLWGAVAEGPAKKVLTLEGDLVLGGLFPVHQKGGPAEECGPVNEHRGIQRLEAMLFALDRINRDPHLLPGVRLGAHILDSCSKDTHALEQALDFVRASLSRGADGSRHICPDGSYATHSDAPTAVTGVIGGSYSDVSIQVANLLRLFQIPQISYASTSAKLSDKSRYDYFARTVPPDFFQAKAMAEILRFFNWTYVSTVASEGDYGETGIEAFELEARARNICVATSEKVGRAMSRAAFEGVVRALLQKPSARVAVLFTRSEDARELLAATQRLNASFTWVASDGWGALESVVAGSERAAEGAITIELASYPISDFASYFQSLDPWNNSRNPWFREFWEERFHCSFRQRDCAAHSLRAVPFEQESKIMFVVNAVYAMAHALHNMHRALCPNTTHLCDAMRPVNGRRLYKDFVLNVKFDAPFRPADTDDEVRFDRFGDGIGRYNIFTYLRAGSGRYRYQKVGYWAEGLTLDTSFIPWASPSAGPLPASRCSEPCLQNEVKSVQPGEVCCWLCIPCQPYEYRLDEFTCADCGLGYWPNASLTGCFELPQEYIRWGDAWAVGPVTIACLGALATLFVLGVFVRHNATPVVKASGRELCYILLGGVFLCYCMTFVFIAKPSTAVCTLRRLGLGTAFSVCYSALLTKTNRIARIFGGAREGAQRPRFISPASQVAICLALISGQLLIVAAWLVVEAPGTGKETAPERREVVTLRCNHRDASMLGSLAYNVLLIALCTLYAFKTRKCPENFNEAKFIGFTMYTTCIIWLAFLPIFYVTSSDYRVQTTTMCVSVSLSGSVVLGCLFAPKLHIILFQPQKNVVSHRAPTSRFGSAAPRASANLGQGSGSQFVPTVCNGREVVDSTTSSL
The target in test [5] is Metabotropic glutamate receptor 4 (Rattus norvegicus) (UniProt P31423). Put plainly: Compound was tested for agonistic or antagonistic activity on rat mGluR4 using the GTP-gamma 35S binding model up to 100 uM; IA means devoid of activity.
Metabotropic glutamate receptor 4 (Rattus norvegicus), sequence (P31423 whole entry): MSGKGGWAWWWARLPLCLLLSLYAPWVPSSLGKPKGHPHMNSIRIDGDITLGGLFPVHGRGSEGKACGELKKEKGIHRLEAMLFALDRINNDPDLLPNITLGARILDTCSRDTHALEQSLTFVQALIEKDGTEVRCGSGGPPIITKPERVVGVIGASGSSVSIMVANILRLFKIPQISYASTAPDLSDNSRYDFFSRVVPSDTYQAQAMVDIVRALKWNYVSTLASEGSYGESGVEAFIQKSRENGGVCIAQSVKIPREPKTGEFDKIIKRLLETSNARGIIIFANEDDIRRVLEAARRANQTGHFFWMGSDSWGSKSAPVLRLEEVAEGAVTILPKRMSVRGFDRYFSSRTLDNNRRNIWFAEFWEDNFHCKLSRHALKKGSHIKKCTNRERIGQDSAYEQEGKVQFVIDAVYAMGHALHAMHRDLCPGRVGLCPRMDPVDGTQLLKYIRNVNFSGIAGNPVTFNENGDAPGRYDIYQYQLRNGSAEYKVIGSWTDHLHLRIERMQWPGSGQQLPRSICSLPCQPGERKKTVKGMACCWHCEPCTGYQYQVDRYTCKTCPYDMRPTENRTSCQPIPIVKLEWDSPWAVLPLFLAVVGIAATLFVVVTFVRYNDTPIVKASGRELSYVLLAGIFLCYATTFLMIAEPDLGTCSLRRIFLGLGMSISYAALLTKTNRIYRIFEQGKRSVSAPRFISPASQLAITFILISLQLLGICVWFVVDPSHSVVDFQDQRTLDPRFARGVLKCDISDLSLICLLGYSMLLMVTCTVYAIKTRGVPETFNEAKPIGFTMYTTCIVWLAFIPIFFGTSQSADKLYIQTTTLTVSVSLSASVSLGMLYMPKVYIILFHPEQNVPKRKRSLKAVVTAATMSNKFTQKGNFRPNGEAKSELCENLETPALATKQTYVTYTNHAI
The target in test [6] is Metabotropic glutamate receptor 5 (Rattus norvegicus) (UniProt P31424). The experiment in a line: Compound was tested for agonistic or antagonistic activity on rat mGluR5 using intracellular Ca 2+ measurement up to 100 uM; IA means devoid of activity. Type of test: functional, cell-based.
Metabotropic glutamate receptor 5 (Rattus norvegicus), sequence (P31424 21-1203 limits assumed): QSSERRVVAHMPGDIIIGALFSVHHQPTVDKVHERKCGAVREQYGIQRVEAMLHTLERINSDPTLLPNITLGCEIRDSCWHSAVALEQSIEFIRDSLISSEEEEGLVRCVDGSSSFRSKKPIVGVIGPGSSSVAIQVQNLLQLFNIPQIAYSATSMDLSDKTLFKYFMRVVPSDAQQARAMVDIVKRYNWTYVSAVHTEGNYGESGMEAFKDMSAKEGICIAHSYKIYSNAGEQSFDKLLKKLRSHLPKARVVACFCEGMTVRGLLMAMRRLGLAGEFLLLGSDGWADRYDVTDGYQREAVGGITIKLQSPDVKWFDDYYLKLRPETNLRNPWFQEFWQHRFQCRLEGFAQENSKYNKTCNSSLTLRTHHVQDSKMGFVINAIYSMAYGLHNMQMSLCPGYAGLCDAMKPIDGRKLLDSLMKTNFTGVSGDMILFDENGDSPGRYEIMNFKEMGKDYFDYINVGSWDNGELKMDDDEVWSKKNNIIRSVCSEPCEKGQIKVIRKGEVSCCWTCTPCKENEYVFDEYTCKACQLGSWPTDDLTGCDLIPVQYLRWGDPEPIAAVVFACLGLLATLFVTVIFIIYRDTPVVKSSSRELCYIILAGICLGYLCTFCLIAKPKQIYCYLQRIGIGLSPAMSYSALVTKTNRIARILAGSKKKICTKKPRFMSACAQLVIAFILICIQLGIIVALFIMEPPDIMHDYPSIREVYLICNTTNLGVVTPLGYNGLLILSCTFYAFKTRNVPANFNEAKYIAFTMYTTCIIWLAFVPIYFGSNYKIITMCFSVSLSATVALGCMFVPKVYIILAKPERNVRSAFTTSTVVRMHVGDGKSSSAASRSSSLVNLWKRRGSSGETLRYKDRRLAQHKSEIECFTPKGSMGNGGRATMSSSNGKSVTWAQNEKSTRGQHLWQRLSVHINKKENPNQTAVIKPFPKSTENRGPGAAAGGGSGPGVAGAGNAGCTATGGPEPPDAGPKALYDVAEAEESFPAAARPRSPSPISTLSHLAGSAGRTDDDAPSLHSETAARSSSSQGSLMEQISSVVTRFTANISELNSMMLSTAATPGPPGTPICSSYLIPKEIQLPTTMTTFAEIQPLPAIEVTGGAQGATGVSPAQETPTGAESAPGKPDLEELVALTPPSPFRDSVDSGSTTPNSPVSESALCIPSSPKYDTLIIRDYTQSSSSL
In test [7] the target is T1, Metabotropic glutamate receptor 2. Put plainly: Inhibition of 10 uM 1S, 3R-ACPD stimulated GTP gamma 35S binding to rat mGluR2 expressed in CHO cells. Format: cell-based.
Test [8] concerns the target Metabotropic glutamate receptor 1 (Rattus norvegicus) (UniProt P23385). Put plainly: Compound was tested for agonistic or antagonistic activity on rat mGluR1 using intracellular Ca 2+ measurement up to 100 uM; IA means devoid of activity. Type of test: functional, cell-based.
Test [9] has as its target T1, Metabotropic glutamate receptor 2. The experiment in a line: Inhibition of 1S, 3R-ACPD (10 uM)-stimulated GTP gamma 35S binding on rat mGluR2 transfected cell membranes from CHO cells.

pIC50: −log10 of the molar value. The source made the active and inactive calls. The calls are words filed in the database; no cut-off is given here.

Regarding `Clc1cccc(Cl)c1/C(=C/n1cncn1)OC1CCCCCC1`, the result in test [1], in [2], in test [3], in [5], in [6] and in [8] was inactive. The pIC50 in [4] is 6.30; in test [7], 6.96.
In turn, `COc1ccc(/C(=C/n2cncn2)OC(C)C)c(OC)c1` gave a pIC50 in [9] of under 4.00.

Source of the values: ChEMBL document CHEMBL1132130, “Synthesis of heterocyclic enol ethers and their use as group 2 metabotropic glutamate receptor antagonists” (Bioorg Med Chem Lett, 1999).
